Assay results as given in US20110034703A1, “CRYSTAL FORMS OF N-[2-(DIETHYLAMINO)ETHYL]-5-[(5-FLUORO-1,2-DIHYDRO-2-OXO-3H-INDOL-3-YLIDENE)METHYL]-2,4-DIMETHYL-1H-PYRROLE-3-CARBOXAMIDE AND METHODS FOR THEIR PREPARATION” (ratiopharm GmbH, priority 2008, published 2011).
“Also recorded” adds a separate entry of the source.

Test: Dynamic moisture sorption gravimetry (DMSG), hygroscopicity
Type: physicochemical
Conditions: for hygroscopicity (in words): DMSG data; for moisture sorption referred to the weight of the sample: DMSG, change in RH of 5% per hour
Description: DMSG was performed using an SPS11-100n instrument (Projekt Messtechnik) at a constant temperature of 25° C. and a change in RH of 5% per hour including isohumid conditions for 5 hours at 0% RH and for 2 hours at 50% RH.

moisture sorption referred to the weight of the sample (25° C., listed as polymorphic form II) | hygroscopicity (in words) (listed as polymorph I) | hygroscopicity (in words) (listed as polymorphic form I) | moisture sorption referred to the weight of the sample (25° C.) | hygroscopicity (in words) (listed as polymorphic form III) | weight gain under DMSG (even at a relative humidity of 95%, 25° C.) | Structure (SMILES) | hygroscopicity (in words) | hygroscopicity (in words) (listed as polymorphic form II)
more than 6% | – | – | – | – | – | CCN(CC)CCNC(=O)c1c(C)[nH]c(/C=C2\C(=O)Nc3ccc(F)cc32)c1C [Polymorph II, N-[2-(diethylamino)ethyl]-5-[(5-fluoro-1,2-dihydro-2-oxo-3H-indol-3-ylidene)methyl]-2,4-dimethyl-1H-pyrrole-3-carboxamide] | clearly hygroscopic | slightly more hygroscopic; also recorded: some hygroscopicity
– | only slightly hygroscopic | very low hygroscopicity | about 1% | – | – | CCN(CC)CCNC(=O)c1c(C)[nH]c(/C=C2\C(=O)Nc3ccc(F)cc32)c1C [Polymorph I, N-[2-(diethylamino)ethyl]-5-[(5-fluoro-1,2-dihydro-2-oxo-3H-indol-3-ylidene)methyl]-2,4-dimethyl-1H-pyrrole-3-carboxamide] | low hygroscopicity; also recorded: only very slightly hygroscopic | –
– | – | – | – | not hygroscopic | does not gain weight | CCN(CC)CCNC(=O)c1c(C)[nH]c(/C=C2\C(=O)Nc3ccc(F)cc32)c1C [Polymorph III, N-[2-(diethylamino)ethyl]-5-[(5-fluoro-1,2-dihydro-2-oxo-3H-indol-3-ylidene)methyl]-2,4-dimethyl-1H-pyrrole-3-carboxamide] | very low hygroscopicity; also recorded: not hygroscopic at all | –
